Consider 19 compounds from patent publication US20140093513A1, “METHODS OF LOWERING PROPROTEIN CONVERSATE SUBTILISIN/KEXIN TYPE 9 (PCSK9)” (Catabasis Pharmaceuticals, Inc., priority 2012, published 2014).

SMILES strings stand for the structures.

Usually IC50 stands for the concentration needed to halve the response being measured. A lower IC50 goes with greater potency.

One test has as its system PCSK9. Briefly: PCSK9 secretion assay in HepG2 cells (PCSK9 ELISA). It is filed as cell-based. The note with it: HepG2 cells, 10 μM atorvastatin, FIG. 2. As to the method:
HepG2 cells (from ATCC, Catalog no. HB-8065) were maintained in DMEM (Invitrogen) supplemented with 10% fetal bovine serum (Invitrogen). The day prior to the PCSK9 assay, cells are seeded in 96-well collagen coated plates at 25,000 cells/well.
The compounds of the invention were stored at −20° C. until used. The test article compound was dissolved in 100% ethanol to a 50 mM stock solution. This was then diluted in FBS to a final concentration of 1 mM. This solution was placed in a sonicating water bath for 30 minutes. Subsequent dilutions were then made in FBS supplemented with an equivalent volume of ethanol and mixed by vortexing.
HepG2 cells were seeded onto a collagen coated 96-well plate (Becton Dickinson, Catalog no. 35-4407) the day prior to the assay, as described above. The next day, the cell medium was removed, washed once with 100 μL serum free DMEM to remove any residual PCSK9, and replaced with 90 μL of serum free DMEM. Ten microliters of each compound concentration prepared in FBS was then added. Each concentration of compound was tested in triplicate. The compound was incubated with the cells overnight for 16 hours. Following this incubation, 10 μL of AlamarBlue was added to each well and cells incubated for another 2 hours. The plates were then removed and AlamarBlue fluorescence was measured (excitation, 550 nm and […]) to assess cell viability. Cell culture supernatant was then diluted […] 1×RDSP Calibrator Diluent and PCSK9 ELISA was then performed with 50 μL of this diluted sample, as per the manufacturer's instructions. The ELISA was measured on a Victor X5 multilabel plate reader (PerkinElmer) at an absorbance of 450 nm with background correction measured at 550 nm (The PCSK9 Elisa kits can be purchased from R&D System, Catalog no. DPC900).
Alternatively, an IC50 could also be obtained when this type of assay was carried out using at least 6 different concentrations of the test compounds. Table 1 lists the IC50 values for the compounds tested in this assay.
(ELISA stands for enzyme-linked immunosorbent assay.)
`CC(C)c1c(C(=O)Nc2ccccc2)c(-c2ccccc2)c(-c2ccc(F)cc2)n1CC[C@@H](O)C[C@@H](O)CC(=O)O` [atorvastatin, reference compound]: the PCSK9 secretion result was “increases PCSK9 secretion”.

Staying with this test, now noted: HepG2 cells, 16 hours incubation, at least 6 concentrations.
In turn, `CC/C=C\C/C=C\C/C=C\C/C=C\C/C=C\CCCC(=O)N1CC[C@H](N(C)C(=O)C2=CC(=O)C(C)(c3ccccc3)O2)C1` (stereo partly drawn) [VII-9, N—((S)-1-((5Z,8Z,11Z,14Z,17Z)-icosa-5,8,11,14,17-pentaenoyl)pyrrolidin-3-yl)-N,5-dimethyl-4-oxo-5-phenyl-4,5-dihydrofuran-2-carboxamide] registered an IC50 of 25 to 50 µM.
Turning to `CC/C=C\C/C=C\C/C=C\C/C=C\C/C=C\CCCC(=O)N1CCC(CNC(=O)c2cnc(C)c[n+]2[O-])CC1` [VII-10, 2-(((1-((5Z,8Z,11Z,14Z,17Z)-icosa-5,8,11,14,17-pentaenoyl)piperidin-4-yl)methyl)carbamoyl)-5-methylpyrazine 1-oxide], the 50% inhibitory concentration (IC50) was < 25 µM.
Consider `CC/C=C\C/C=C\C/C=C\C/C=C\C/C=C\CCCC(=O)N1CC[C@@H](NC(=O)c2cnc(C)c[n+]2[O-])C1` [VII-11, 2-(((R)-1-((5Z,8Z,11Z,14Z,17Z)-icosa-5,8,11,14,17-pentaenoyl)pyrrolidin-3-yl)carbamoyl)-5-methylpyrazine 1-oxide], for which the concentration for half-maximal inhibition (IC50) is > 50 µM.
Consider `CC/C=C\C/C=C\C/C=C\C/C=C\C/C=C\CCCC(=O)N1CC[C@H](NC(=O)c2cnc(C)c[n+]2[O-])C1` [VII-12, 2-(((S)-1-((5Z,8Z,11Z,14Z,17Z)-icosa-5,8,11,14,17-pentaenoyl)pyrrolidin-3-yl)carbamoyl)-5-methylpyrazine 1-oxide], for which the IC50 was > 50 µM.
With `CC/C=C\C/C=C\C/C=C\C/C=C\C/C=C\CCCC(=O)N1CCC[C@@H]1CNC(=O)c1cnc(C)c[n+]1[O-]` [VII-13, 2-((((R)-1-((5Z,8Z,11Z,14Z,17Z)-icosa-5,8,11,14,17-pentaenoyl)pyrrolidin-2-yl)methyl)carbamoyl)-5-methylpyrazine 1-oxide], the IC50 was < 25 µM.
Same read-out and setting: the figure for `CC/C=C\C/C=C\C/C=C\C/C=C\C/C=C\CCCC(=O)N1CCC[C@H]1CNC(=O)c1cnc(C)c[n+]1[O-]` [VII-14, 2-((((S)-1-((5Z,8Z,11Z,14Z,17Z)-icosa-5,8,11,14,17-pentaenoyl)pyrrolidin-2-yl)methyl)carbamoyl)-5-methylpyrazine 1-oxide] is 25 to 50 µM.
Regarding `CC/C=C\C/C=C\C/C=C\C/C=C\C/C=C\CCCC(=O)N1CCC(NC(=O)c2c[n+]([O-])cc(C)n2)CC1` [VII-15, 3-((1-((5Z,8Z,11Z,14Z,17Z)-icosa-5,8,11,14,17-pentaenoyl)piperidin-4-yl)carbamoyl)-5-methylpyrazine 1-oxide], the 50% inhibitory concentration (IC50) is < 25 µM.
The same measure, in the same setting: under `CC/C=C\C/C=C\C/C=C\C/C=C\C/C=C\CCCC(=O)N1CCC(CN(C)C(=O)c2cnc(C)c[n+]2[O-])CC1` [VII-16, 2-(((1-((5Z,8Z,11Z,14Z,17Z)-icosa-5,8,11,14,17-pentaenoyl)piperidin-4-yl)methyl)(methyl)carbamoyl)-5-methylpyrazine 1-oxide] stands 25 to 50 µM; under `CC/C=C\C/C=C\C/C=C\C/C=C\C/C=C\CCCC(=O)N1CC[C@H](N(C)C(=O)c2cnc(C)c[n+]2[O-])C1` [VII-17, 2-(((S)-1-((5Z,8Z,11Z,14Z,17Z)-icosa-5,8,11,14,17-pentaenoyl)pyrrolidin-3-yl)(methyl)carbamoyl)-5-methylpyrazine 1-oxide], < 25 µM; under `CC/C=C\C/C=C\C/C=C\C/C=C\C/C=C\CCCC(=O)N1CCC(NC(=O)C(C)(C)Oc2ccc(C(=O)c3ccc(Cl)cc3)cc2)CC1` [VII-19, 2-(4-(4-chlorobenzoyl)phenoxy)-N-(1-((5Z,8Z,11Z,14Z,17Z)-icosa-5,8,11,14,17-pentaenoyl)piperidin-4-yl)-2-methylpropanamide], < 25 µM.
Still for that read-out and setting: under `CC/C=C\C/C=C\C/C=C\C/C=C\C/C=C\CCCC(=O)N1CCC(CNC(=O)C(C)(C)Oc2ccc(C(=O)c3ccc(Cl)cc3)cc2)CC1` [VII-20, 2-(4-(4-chlorobenzoyl)phenoxy)-N-((1-((5Z,8Z,11Z,14Z,17Z)-icosa-5,8,11,14,17-pentaenoyl)piperidin-4-yl)methyl)-2-methylpropanamide] stands < 25 µM.
The same measure, in the same setting: under `CC/C=C\C/C=C\C/C=C\C/C=C\C/C=C\CCCC(=O)N1CC[C@@H](NC(=O)C(C)(C)Oc2ccc(C(=O)c3ccc(Cl)cc3)cc2)C1` [VII-21, 2-(4-(4-chlorobenzoyl)phenoxy)-N—((R)-1-((5Z,8Z,11Z,14Z,17Z)-icosa-5,8,11,14,17-pentaenoyl)pyrrolidin-3-yl)-2-methylpropanamide] stands < 25 µM.
As for `CC/C=C\C/C=C\C/C=C\C/C=C\C/C=C\CCCC(=O)N1CC[C@H](NC(=O)C(C)(C)Oc2ccc(C(=O)c3ccc(Cl)cc3)cc2)C1` [VII-22, 2-(4-(4-chlorobenzoyl)phenoxy)-N—((S)-1-((5Z,8Z,11Z,14Z,17Z)-icosa-5,8,11,14,17-pentaenoyl)pyrrolidin-3-yl)-2-methylpropanamide], the IC50 is < 25 µM.
Turning to `CC/C=C\C/C=C\C/C=C\C/C=C\C/C=C\CCCC(=O)N1CCC[C@@H]1CNC(=O)C(C)(C)Oc1ccc(C(=O)c2ccc(Cl)cc2)cc1` [VII-23, 2-(4-(4-chlorobenzoyl)phenoxy)-N—(((R)-1-((5Z,8Z,11Z,14Z,17Z)-icosa-5,8,11,14,17-pentaenoyl)pyrrolidin-2-yl)methyl)-2-methylpropanamide], the IC50 is < 25 µM.
With `CC/C=C\C/C=C\C/C=C\C/C=C\C/C=C\CCCC(=O)N1CCC[C@H]1CNC(=O)C(C)(C)Oc1ccc(C(=O)c2ccc(Cl)cc2)cc1` [VII-24, 2-(4-(4-chlorobenzoyl)phenoxy)-N—(((S)-1-((5Z,8Z,11Z,14Z,17Z)-icosa-5,8,11,14,17-pentaenoyl)pyrrolidin-2-yl)methyl)-2-methylpropanamide], the IC50 is > 50 µM.
On the same count and under the same terms, under `CC/C=C\C/C=C\C/C=C\C/C=C\C/C=C\CCCC(=O)NC1CCN(C(=O)C(C)(C)Oc2ccc(C(=O)c3ccc(Cl)cc3)cc2)CC1` [VII-25, (5Z,8Z,11Z,14Z,17Z)—N-(1-(2-(4-(4-chlorobenzoyl)phenoxy)-2-methylpropanoyl)piperidin-4-yl)icosa-5,8,11,14,17-pentaenamide] stands < 25 µM.
Same read-out and setting: the figure for `CC/C=C\C/C=C\C/C=C\C/C=C\C/C=C\CCCC(=O)Nc1nc(C)ncc1CNC(=O)C(C)(C)Oc1ccc(C(=O)c2ccc(Cl)cc2)cc1` [VII-41, (5Z,8Z,11Z,14Z,17Z)—N-(5-((2-(4-(4-chlorobenzoyl)phenoxy)-2-methylpropanamido)methyl)-2-methylpyrimidin-4-yl)icosa-5,8,11,14,17-pentaenamide] is 25 to 50 µM.
Still for that read-out and setting: the figure for `CC/C=C\C/C=C\C/C=C\C/C=C\C/C=C\CCCC(=O)N1CCN(C(=O)C(C)(C)Oc2ccc(C(=O)c3ccc(Cl)cc3)cc2)CC1` [VII-42, (5Z,8Z,11Z,14Z,17Z)-1-(4-(2-(4-(4-chlorobenzoyl)phenoxy)-2-methylpropanoyl)piperazin-1-yl)icosa-5,8,11,14,17-pentaen-1-one] is < 25 µM.
